In patent US20250248970A1, “NOVEL SUBSTITUTED FLUORINATED N-PROPYL-PYRROLIDINE COMPOUNDS, PROCESSES FOR THEIR PREPARATION AND THERAPEUTIC USES THEREOF” (SANOFI, priority 2022, published 2025):

Target: T1, ERα (Homo sapiens, UniProt P03372)
T1 construct: host or cells: MCF7
T1 sequence (P03372 1-595): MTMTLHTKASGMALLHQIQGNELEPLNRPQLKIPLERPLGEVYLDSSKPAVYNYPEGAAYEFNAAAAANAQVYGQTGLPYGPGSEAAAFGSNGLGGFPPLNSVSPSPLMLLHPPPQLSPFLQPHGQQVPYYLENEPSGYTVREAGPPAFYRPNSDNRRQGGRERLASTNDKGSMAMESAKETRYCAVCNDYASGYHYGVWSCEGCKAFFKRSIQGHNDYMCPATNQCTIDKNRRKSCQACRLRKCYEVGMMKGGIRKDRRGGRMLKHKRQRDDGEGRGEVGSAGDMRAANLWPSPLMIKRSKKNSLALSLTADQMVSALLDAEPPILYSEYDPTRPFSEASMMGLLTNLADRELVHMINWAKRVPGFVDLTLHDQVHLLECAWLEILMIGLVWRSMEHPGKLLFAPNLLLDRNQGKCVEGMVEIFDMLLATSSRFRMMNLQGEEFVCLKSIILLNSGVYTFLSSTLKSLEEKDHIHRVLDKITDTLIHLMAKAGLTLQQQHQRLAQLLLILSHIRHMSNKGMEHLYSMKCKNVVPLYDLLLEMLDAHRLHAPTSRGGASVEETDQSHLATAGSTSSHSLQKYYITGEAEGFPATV
Test: Estrogen receptor degradation activity (breast cancer cell ERα in cell western assay)
Format: cell-based
Details: MCF7 cells, 0.3 μM, 4 hours, % of ERα levels decrease relative to fulvestrant
Protocol: Said test involves measuring the in vitro degradation activity of the compounds of the Table 1a.
The measurements of the degradation activities were made using a breast cancer cell ERα in cell western assay as described hereunder.
MCF7 cells (ATCC) were seeded in 384 wells microplate (collagen coated) at a concentration of 10000 cells/30 μL per well in red phenol free MEM alpha medium (invitrogen) containing 5% charcoal dextran striped FBS. The following day, 9 points serial 1:5 dilution of each compound was added to the cells in 2.5p L at final concentrations ranging from 0.3-0.0000018 μM (in table 2), or 0.1 μM for fulvestrant (using as positive control). At 4 hours post compound addition the cells were fixed by adding 25 μL of formalin (final concentration 5% formalin containing 0.1% triton) for 10 minutes at room temperature and then washed twice with PBS. Then, 50 μL of LI-COR blocking buffer containing 0.1% Triton was added to plate for 30 minutes at room temperature. LI-COR blocking buffer was removed and cells were incubated overnight at cold room with 50 μL anti-ER rabbit monoclonal antibody (Thermo scientific MA1-39540) diluted at 1:1000 in LI-COR blocking buffer containing 0.1% tween-20. Wells which were treated with blocking buffer but no antibody were used as background control. Wells were washed twice with PBS (0.1% tween-20) and incubated at 37° C. for 60 minutes in LI-COR (0.1% tween-20) containing goat anti-rabbit antibody Alexa 488 (1:1000) and Syto-64 a DNA dye (2 μM final concentration). Cells were then washed 3 times in PBS and scanned in ACUMEN explorer (TTP-Labtech). Integrated intensities in the green fluorescence and red fluorescence were measured to determine the levels of ERα and DNA respectively.
The degradation activity with respect to estrogen receptors in this test is given by the concentration which degrades 50% of the estrogen receptor (or IC50) in nM.
The % of ERα levels decrease were determined as follows: % inhibition=100*(1−(sample−fulvestrant: DMSO−fulvestrant)).

## O=C(O)c1ccc2c(c1)CCCC(c1ccc(Cl)cc1Cl)=C2c1ccc(C(F)(F)C2CCN(CCCF)C2)cc1 (single isomer, unassigned; isomer 1) [Compound 26, 8-(2,4-dichlorophenyl)-9-(4-(difluoro(1-(3-fluoropropyl)pyrrolidin-3-yl)methyl)phenyl)-6,7-dihydro-5H-benzo[7]annulene-3-carboxylic acid, Isomer 1]
  % Degradation At 0.3 μM: 84%

## O=C(O)c1ccc2c(c1)CCCC(c1ccccc1C(F)(F)F)=C2c1ccc(CC2CCN(CCC(F)F)C2)cc1 (stereo not drawn) [Compound 33, 9-(4-((1-(3,3-difluoropropyl)pyrrolidin-3-yl)methyl)phenyl)-8-(2-(trifluoromethyl)phenyl)-6,7-dihydro-5H-benzo[7]annulene-3-carboxylic acid]
  % Degradation At 0.3 μM: 76%

## Cl.O=C(O)c1ccc2c(c1)CCCC(c1ccc(F)cc1Cl)=C2c1ccc(CC2CCN(CCC(F)F)C2)cc1 (single isomer, unassigned; isomer 1) [Compound 27, 8-(2-chloro-4-fluorophenyl)-9-(4-((1-(3,3-difluoropropyl)pyrrolidin-3-yl)methyl)phenyl)-6,7-dihydro-5H-benzo[7]annulene-3-carboxylic acid hydrochloride, Isomer 1]
  % Degradation At 0.3 μM: 73%

## Cl.O=C(O)c1ccc2c(c1)CCCC(c1cccc(Cl)c1)=C2c1ccc(CC2CCN(CCCF)C2)cc1 (single isomer, unassigned; isomer 1) [Compound 40, 8-(3-chlorophenyl)-9-(4-((1-(3-fluoropropyl)pyrrolidin-3-yl)methyl)phenyl)-6,7-dihydro-5H-benzo[7]annulene-3-carboxylic acid hydrochloride, Isomer 1]
  % Degradation At 0.3 μM: 73%

## Cl.Oc1ccc2c(c1)CCCC(c1ccc(Cl)cc1Cl)=C2c1ccc(CC2CCN(CCC(F)F)C2)cc1 (single isomer, unassigned; isomer 1) [Compound 31, 8-(2,4-dichlorophenyl)-9-(4-((1-(3,3-difluoropropyl)pyrrolidin-3-yl)methyl)phenyl)-6,7-dihydro-5H-benzo[7]annulen-3-ol hydrochloride, Isomer 1]
  % Degradation At 0.3 μM: 73%

## Cl.O=C(O)c1ccc2c(c1)OCCC(c1ccc(Cl)cc1Cl)=C2c1ccc(CC2CCN(CCCF)C2)cc1 (single isomer, unassigned; isomer 1) [Compound 7, 4-(2,4-dichlorophenyl)-5-(4-((1-(3-fluoropropyl)pyrrolidin-3-yl)methyl)phenyl)-2,3-dihydrobenzo[b]oxepine-8-carboxylic acid hydrochloride, Isomer 1]
  % Degradation At 0.3 μM: 80%

## O=C(O)c1ccc2c(c1)CCCC(c1ccc(Cl)cc1Cl)=C2c1ccc(CC2CCN(CCC(F)F)C2)cc1 (single isomer, unassigned; isomer 1) [Compound 9, 8-(2,4-dichlorophenyl)-9-(4-((1-(3,3-difluoropropyl)pyrrolidin-3-yl)methyl)phenyl)-6,7-dihydro-5H-benzo[7]annulene-3-carboxylic acid, Isomer 1]
  % Degradation At 0.3 μM: 80%

## Cc1cc(F)cc(C)c1C1=C(c2ccc(CC3CCN(CCC(F)F)C3)cc2)c2ccc(C(=O)O)cc2CCC1.Cl (single isomer, unassigned; isomer 1) [Compound 32, 9-(4-((1-(3,3-difluoropropyl)pyrrolidin-3-yl)methyl)phenyl)-8-(4-fluoro-2,6-dimethylphenyl)-6,7-dihydro-5H-benzo[7]annulene-3-carboxylic acid hydrochloride, Isomer 1]
  % Degradation At 0.3 μM: 76%

## Cl.O=C(O)c1ccc2c(c1)CCCC(c1ccc(Cl)cc1)=C2c1ccc(CC2CCN(CCCF)C2)cc1 (single isomer, unassigned; isomer 1) [Compound 37, 8-(4-chlorophenyl)-9-(4-((1-(3-fluoropropyl)pyrrolidin-3-yl)methyl)phenyl)-6,7-dihydro-5H-benzo[7]annulene-3-carboxylic acid hydrochloride, Isomer 1]
  % Degradation At 0.3 μM: 93%

## Cl.O=C(O)c1ccc2c(c1)SCC(c1ccc(Cl)cc1Cl)=C2c1ccc(CC2CCN(CCCF)C2)cc1 (single isomer, unassigned; isomer 1) [Compound 25, 3-(2,4-dichlorophenyl)-4-(4-((1-(3-fluoropropyl)pyrrolidin-3-yl)methyl)phenyl)-2H-thiochromene-7-carboxylic acid hydrochloride, Isomer 1]
  % Degradation At 0.3 μM: 68%

## Oc1ccc2c(c1)SCCC(c1ccccc1Cl)=C2c1ccc(CC2CCN(CCCF)C2)cc1 (single isomer, unassigned; isomer 1) [Compound 44, 4-(2-chlorophenyl)-5-(4-((1-(3-fluoropropyl)pyrrolidin-3-yl)methyl)phenyl)-2,3-dihydrobenzo[b]thiepin-8-ol, Isomer 1]
  % Degradation At 0.3 μM: 70%

## Cc1cc(F)ccc1C1=C(c2ccc(CC3CCN(CCCF)C3)cc2)c2ccc(C(=O)O)cc2CCC1 (single isomer, unassigned; isomer 1) [Compound 17, 8-(4-fluoro-2-methylphenyl)-9-(4-((1-(3-fluoropropyl)pyrrolidin-3-yl)methyl)phenyl)-6,7-dihydro-5H-benzo[7]annulene-3-carboxylic acid, Isomer 1]
  % Degradation At 0.3 μM: 84%

## Cl.O=C(O)c1ccc2c(c1)CCCC(c1cccc(C(F)(F)F)c1)=C2c1ccc(CC2CCN(CCCF)C2)cc1 (single isomer, unassigned; isomer 1) [Compound 39, 9-(4-((1-(3-fluoropropyl)pyrrolidin-3-yl)methyl)phenyl)-8-(3-(trifluoromethyl)phenyl)-6,7-dihydro-5H-benzo[7]annulene-3-carboxylic acid hydrochloride, Isomer 1]
  % Degradation At 0.3 μM: 76%

## Cl.Oc1ccc2c(c1)CCCC(c1ccc(Cl)cc1Cl)=C2c1ccc(CC2CCN(CCCF)C2)cc1 (single isomer, unassigned; isomer 1) [Compound 29, 8-(2,4-dichlorophenyl)-9-(4-((1-(3-fluoropropyl)pyrrolidin-3-yl)methyl)phenyl)-6,7-dihydro-5H-benzo[7]annulene-3-ol hydrochloride, Isomer 1]
  % Degradation At 0.3 μM: 76%

## Cc1c(C2=C(c3ccc(CC4CCN(CCC(F)F)C4)cc3)c3ccc(C(=O)O)cc3CCC2)cccc1C(F)(F)F.Cl (single isomer, unassigned; isomer 1) [Compound 28, 9-(4-((1-(3,3-difluoropropyl)pyrrolidin-3-yl)methyl)phenyl)-8-(2-methyl-3-(trifluoromethyl)phenyl)-6,7-dihydro-5H-benzo[7]annulene-3-carboxylic acid hydrochloride, Isomer 1]
  % Degradation At 0.3 μM: 78%

## CC1CCc2cc(C(=O)O)ccc2C(c2ccc(CC3CCN(CCCF)C3)cc2)=C1c1ccc(C(F)(F)F)cc1 (single isomer, unassigned; isomer 2) [Compound 42, 9-(4-((1-(3-fluoropropyl)pyrrolidin-3-yl)methyl)phenyl)-7-methyl-8-(4-(trifluoromethyl)phenyl)-6,7-dihydro-5H-benzo[7]annulene-3-carboxylic acid, Isomer 2]
  % Degradation At 0.3 μM: 90%

## Cc1cccc(C2=C(c3ccc(CC4CCN(CCC(F)F)C4)cc3)c3ccc(C(=O)O)cc3CCC2)c1C(F)(F)F.Cl (single isomer, unassigned; isomer 1) [Compound 34, 9-(4-((1-(3,3-difluoropropyl)pyrrolidin-3-yl)methyl)phenyl)-8-(3-methyl-2-(trifluoromethyl)phenyl)-6,7-dihydro-5H-benzo[7]annulene-3-carboxylic acid hydrochloride, Isomer 1]
  % Degradation At 0.3 μM: 85%

## Cl.O=C(O)c1ccc2c(c1)CCCC(c1ccc(F)cc1F)=C2c1ccc(CC2CCN(CCCF)C2)cc1 (single isomer, unassigned; isomer 1) [Compound 19, 8-(2,4-difluorophenyl)-9-(4-((1-(3-fluoropropyl)pyrrolidin-3-yl)methyl)phenyl)-6,7-dihydro-5H-benzo[7]annulene-3-carboxylic acid hydrochloride, Isomer 1]
  % Degradation At 0.3 μM: 86%
